Consider 28 compounds from patent publication US6534522B2, “Subtype-selective NMDA receptor ligands and the use thereof” (Warner-Lambert Company, priority 1995, dated 2003).

Where a name gives a salt, the structure may show the parent alone. Read-outs that look alike come from different tables or passages of the source.

Holding throughout (type): cell-based
The target of experiment [1] is NR1A/2A NMDA receptor (Rattus norvegicus, UniProt P35439+Q00959). Kind of experiment: Xenopus oocyte expression system, two-electrode voltage clamp, NR1A/2A. The source says: (§1) Electrophysiological assays may be utilized to characterize the actions of potential subtype-selective ligands at NMDA receptors expressed in Xenopus oocytes. The ligand may be assayed at the different subunit combinations of cloned rat NMDA receptors corresponding to the four putative NMDA receptor subtypes (Moriyoshi et al., Nature (Lond.) 354:31-37 (1991); Monyer et al., Science (Washington, D.C.) 256:1217-1221 (1992); Kutsuwada et al., Nature (Lond.) 358:36-41 (1992); Sugihara et al., Biochem. Biophys. Res. Comm. 185:826-832 (1992)).
Chain of NR1A/2A NMDA receptor (Q00959 20-1464 limits assumed, other chains not shown): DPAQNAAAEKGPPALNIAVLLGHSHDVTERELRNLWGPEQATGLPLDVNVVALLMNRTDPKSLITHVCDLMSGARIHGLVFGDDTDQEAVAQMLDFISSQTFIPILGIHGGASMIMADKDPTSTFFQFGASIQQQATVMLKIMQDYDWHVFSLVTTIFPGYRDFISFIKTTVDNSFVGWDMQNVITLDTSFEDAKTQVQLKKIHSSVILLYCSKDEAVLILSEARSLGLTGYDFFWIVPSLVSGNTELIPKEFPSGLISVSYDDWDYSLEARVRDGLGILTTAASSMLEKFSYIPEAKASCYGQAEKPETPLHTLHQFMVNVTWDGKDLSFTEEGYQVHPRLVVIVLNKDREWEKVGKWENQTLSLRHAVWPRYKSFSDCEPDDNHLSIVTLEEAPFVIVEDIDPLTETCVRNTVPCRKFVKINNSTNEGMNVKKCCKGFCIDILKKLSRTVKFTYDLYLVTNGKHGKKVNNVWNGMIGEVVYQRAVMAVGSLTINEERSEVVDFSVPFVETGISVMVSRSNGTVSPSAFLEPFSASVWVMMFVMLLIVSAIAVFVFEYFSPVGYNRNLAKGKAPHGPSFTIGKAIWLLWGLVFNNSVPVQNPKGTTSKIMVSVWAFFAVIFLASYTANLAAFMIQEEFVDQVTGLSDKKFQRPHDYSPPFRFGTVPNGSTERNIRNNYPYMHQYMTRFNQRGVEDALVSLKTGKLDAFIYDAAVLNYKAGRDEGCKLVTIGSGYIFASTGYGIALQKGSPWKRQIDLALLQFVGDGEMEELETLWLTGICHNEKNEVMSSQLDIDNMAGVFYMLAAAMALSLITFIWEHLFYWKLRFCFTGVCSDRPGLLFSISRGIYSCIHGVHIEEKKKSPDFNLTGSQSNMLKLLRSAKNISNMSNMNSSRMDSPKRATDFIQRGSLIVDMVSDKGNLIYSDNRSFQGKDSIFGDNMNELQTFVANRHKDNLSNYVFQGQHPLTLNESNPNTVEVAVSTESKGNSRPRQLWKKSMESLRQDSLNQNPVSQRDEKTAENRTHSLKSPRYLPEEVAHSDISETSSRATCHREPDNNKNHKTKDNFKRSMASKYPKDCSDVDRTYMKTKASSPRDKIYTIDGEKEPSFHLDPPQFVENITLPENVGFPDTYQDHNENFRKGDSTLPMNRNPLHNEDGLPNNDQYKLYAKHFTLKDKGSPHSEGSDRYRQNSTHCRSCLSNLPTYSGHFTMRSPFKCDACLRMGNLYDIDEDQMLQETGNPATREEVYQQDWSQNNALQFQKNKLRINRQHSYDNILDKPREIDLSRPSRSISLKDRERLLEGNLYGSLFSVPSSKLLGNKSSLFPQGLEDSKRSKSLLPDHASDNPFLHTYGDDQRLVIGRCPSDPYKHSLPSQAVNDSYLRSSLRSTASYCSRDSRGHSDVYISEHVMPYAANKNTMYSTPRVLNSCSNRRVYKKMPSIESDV
(§2) Using fixed saturating concentrations of agonists (glutamate 100 μM, glycine 1-10 μM depending on subunit combination), the inhibitory potency of a putative subtype-selective ligand may be assayed at the NMDA receptors assembled from NR1A/2A, NR1A/2B, NR1A/2C and NR1A/2D subunit combinations.
(§3) The Xenopus oocyte expression system. Mature female Xenopus laevis were anaesthetized (20-40 min) using 0.15% 3-aminobenzoic acid ethyl ester (MS-222) and 2-4 ovarian lobes were surgically removed. Oocytes at developmental stages IV-VI (Dumont, J. N., J. Morphol. 136:153-180 (1972)), were dissected from the ovary still surrounded by enveloping ovarian tissues. Follicle-enclosed oocytes were micro-injected with 1:1 mixtures of cRNA:NR1A+NR2A, 2B, 2C or 2D; injecting ˜2, 5, or 20 ng of RNA encoding each receptor subunit. NR1A encoding cRNA was injected alone at ˜20 ng. Oocytes were stored in Barth's medium containing (in mM): NaCl, 88; KCl, 1; CaCl2, 0.41; Ca(NO3)2, 0.33; MgSO4, 0.82; NaHCO3, 2.4; HEPES 5; pH 7.4, with 0.1 mg/mL gentamycin sulphate. While oocytes were still surrounded by enveloping ovarian tissues the Barth's medium was supplemented with 0.1% bovine serum. Oocytes were defolliculated 1-2 days following injections by treatment with collagenase (0.5 mg/mL Sigma Type I for 0.5-1 hr) (Miledi and Woodward, J. Physiol. (Lond.) 416:601-621 (1989)) and subsequently stored in serum-free medium.
(§4) Electrical recordings were made using a conventional two-electrode voltage clamp (Dagan TEV-200) over periods ranging between 3-21 days following injection. Oocytes were placed in a 0.1 mL recording chamber continuously perfused (5-15 mL min^−1) with frog Ringer's solution containing (in mM): NaCl, 115; KCl, 2; CaCl2, 1.8; HEPES, 5; pH 7.4. Drugs were applied by bath perfusion. When using the more rapid flow rates, half-times for mid-chamber solution changes were between 2-3 sec, however, exchange rates for drug solutions at the oocyte surface (i.e. beneath the vitelline envelope and among the tangles of microvilli) were probably considerably longer (Woodward et al., Mol. Pharmacol. 41:89-103 (1992)). Zero-Ca^2+/Ba^2+ Ringer had the composition (in mM): NaCl, 115; KCl, 2; BaCl2, 1.8; HEPES, 5; pH 7.4. Intraoocyte injections were made by pneumatic pressure-pulse ejection from micropipettes (Miledi and Parker, J. Physiol. (Lond.) 357:173-183 (1984)). Injection solutions of EGTA (40-400 mM) and BAPTA (50-500 mM) were made up in H2O, pH adjusted to 7.4 with KOH or HCl, and filtered to minimize plugging (Acrodisc-13, […]). Pressure was set between 200-400 kPa. The volume of injections was regulated by adjusting the time of pulses (0.1-1 sec) and was estimated by measuring the diameters of ejected droplets.
(§5) Concentration-inhibition curves were fit with equation 2.
(§6) I/Icontrol=1/(1+([antagonist]/10^−pIC50)^n) Eq. 2
(§7) in which Icontrol is the current evoked by agonists alone, pIC50=−log IC50, […] is the concentration of antagonist that produces half maximal inhibition, and n is the slope factor. For incomplete curves analysis by fitting was unreliable and IC50 values were calculated by simple regression over linear portions of the curves (Origin: Microcal Software).
(§8) Drugs were initially dissolved at concentrations of 10-100 mM in DMSO. Dilutions were then made to generate a series of DMSO stock solutions over the range 10 μM to 100 mM. Working solutions were made by 1000-3000 fold dilution of stocks into Ringer. […]
For orientation: In two-electrode clamp one electrode senses voltage and the other passes current.

The target in experiment [2] is NR1A/2B NMDA receptor (Rattus norvegicus, UniProt P35439+Q00960). Kind of experiment: Xenopus oocyte expression system, two-electrode voltage clamp, NR1A/2B.
Chain of NR1A/2B NMDA receptor (Q00960 27-1482, other chains not shown): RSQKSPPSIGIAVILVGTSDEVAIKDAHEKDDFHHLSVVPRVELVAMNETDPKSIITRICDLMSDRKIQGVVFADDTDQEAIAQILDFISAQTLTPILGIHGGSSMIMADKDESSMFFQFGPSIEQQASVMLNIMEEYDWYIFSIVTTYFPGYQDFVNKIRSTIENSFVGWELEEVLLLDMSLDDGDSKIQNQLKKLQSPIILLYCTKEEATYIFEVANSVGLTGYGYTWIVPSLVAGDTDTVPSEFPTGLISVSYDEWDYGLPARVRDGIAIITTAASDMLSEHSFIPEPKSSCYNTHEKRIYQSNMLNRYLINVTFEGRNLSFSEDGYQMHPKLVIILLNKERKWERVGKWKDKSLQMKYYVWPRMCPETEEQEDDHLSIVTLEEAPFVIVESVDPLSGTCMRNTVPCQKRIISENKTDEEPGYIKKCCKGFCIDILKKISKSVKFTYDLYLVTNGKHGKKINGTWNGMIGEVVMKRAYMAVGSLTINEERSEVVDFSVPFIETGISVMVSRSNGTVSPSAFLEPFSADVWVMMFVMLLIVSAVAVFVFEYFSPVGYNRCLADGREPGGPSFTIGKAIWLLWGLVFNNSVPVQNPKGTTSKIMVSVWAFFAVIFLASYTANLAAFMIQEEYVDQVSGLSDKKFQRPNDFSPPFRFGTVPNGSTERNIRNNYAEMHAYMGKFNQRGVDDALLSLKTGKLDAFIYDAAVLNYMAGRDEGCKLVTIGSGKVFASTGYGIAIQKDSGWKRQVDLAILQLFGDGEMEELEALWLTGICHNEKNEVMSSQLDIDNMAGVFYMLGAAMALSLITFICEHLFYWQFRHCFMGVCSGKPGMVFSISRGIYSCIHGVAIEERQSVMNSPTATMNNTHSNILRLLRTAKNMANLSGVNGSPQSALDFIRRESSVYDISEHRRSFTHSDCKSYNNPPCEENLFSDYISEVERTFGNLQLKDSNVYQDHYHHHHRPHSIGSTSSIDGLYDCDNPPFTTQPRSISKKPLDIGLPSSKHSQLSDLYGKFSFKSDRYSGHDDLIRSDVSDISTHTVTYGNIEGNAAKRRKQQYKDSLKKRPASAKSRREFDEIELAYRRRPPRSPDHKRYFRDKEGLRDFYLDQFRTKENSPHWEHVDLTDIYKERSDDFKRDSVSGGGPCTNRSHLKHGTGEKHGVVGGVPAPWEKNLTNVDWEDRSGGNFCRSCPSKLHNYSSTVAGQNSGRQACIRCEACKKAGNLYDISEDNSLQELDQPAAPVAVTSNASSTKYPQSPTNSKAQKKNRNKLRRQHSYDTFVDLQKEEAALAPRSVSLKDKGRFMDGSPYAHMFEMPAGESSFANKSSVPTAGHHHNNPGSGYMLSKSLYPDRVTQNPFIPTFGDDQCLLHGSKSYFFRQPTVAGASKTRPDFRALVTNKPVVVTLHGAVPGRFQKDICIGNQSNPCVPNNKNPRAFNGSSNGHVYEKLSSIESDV
Description: as §1, §2, §3, §4, §5, §6, §7, §8

Experiment [3] concerns the target NR1A/2C NMDA receptor (Rattus norvegicus, UniProt P35439+Q00961). Put plainly: Xenopus oocyte expression system, two-electrode voltage clamp, NR1A/2C.
Description: as §1, §2, §3, §4, §5, §6, §7, §8

The mark [4] stands for this setting: cloned NR1A/2A subunits expressed in Xenopus oocytes, inhibition of agonist-evoked membrane current, read-out: 1A/2A IC50.
Where [5] appears, read: cloned NR1A/2B subunits expressed in Xenopus oocytes, inhibition of agonist-evoked membrane current, read-out: 1A/2B IC50.
The mark [6] stands for this setting: cloned NR1A/2C subunits expressed in Xenopus oocytes, inhibition of agonist-evoked membrane current, read-out: 1A/2C IC50.

Chain of NR1A/2C NMDA receptor (Q00961 20-1237, other chains not shown): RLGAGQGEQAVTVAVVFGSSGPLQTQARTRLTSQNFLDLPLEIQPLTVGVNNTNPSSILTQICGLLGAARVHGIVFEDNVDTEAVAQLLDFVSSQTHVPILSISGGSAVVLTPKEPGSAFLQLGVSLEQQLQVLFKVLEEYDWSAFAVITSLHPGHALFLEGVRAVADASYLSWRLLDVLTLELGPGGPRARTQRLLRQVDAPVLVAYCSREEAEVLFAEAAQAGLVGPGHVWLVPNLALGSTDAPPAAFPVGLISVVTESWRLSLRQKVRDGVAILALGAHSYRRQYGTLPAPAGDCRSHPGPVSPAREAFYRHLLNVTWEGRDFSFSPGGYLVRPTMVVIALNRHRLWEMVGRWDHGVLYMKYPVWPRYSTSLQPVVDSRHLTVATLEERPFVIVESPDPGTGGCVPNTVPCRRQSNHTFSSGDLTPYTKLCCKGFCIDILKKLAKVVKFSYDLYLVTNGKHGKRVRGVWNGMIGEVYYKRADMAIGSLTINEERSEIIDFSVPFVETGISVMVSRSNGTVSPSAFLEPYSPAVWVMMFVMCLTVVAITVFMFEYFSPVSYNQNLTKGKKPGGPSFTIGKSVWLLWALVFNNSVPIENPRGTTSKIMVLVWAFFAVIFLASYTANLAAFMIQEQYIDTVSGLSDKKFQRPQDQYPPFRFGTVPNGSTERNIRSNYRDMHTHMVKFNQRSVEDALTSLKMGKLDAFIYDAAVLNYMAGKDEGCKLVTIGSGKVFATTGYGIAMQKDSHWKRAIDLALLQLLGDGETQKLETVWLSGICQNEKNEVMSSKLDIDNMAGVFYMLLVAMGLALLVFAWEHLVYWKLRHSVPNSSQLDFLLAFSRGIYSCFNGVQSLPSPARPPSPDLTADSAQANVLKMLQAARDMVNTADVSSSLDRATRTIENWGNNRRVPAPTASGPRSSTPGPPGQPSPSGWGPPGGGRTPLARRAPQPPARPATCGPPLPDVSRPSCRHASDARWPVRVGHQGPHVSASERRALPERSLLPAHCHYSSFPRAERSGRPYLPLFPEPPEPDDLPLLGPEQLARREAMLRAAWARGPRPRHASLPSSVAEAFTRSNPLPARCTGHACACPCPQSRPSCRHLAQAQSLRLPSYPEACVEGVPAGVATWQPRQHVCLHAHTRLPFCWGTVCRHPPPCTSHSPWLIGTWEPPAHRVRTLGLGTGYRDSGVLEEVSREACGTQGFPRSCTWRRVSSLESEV

Turning to “1-(2-Phenylethyl)-4-benzylidenepiperidine [Ex. 15]”, the IC50 was found to be 60 µM in experiment [1] (setting [4]), 5.5 µM in experiment [2] (setting [5]) and 230 µM in experiment [3] (setting [6]).
Taken in the same sequence, the figures for `CCCCCCN1CCC(Cc2ccccc2)CC1` [(A), 4-benzyl-1-hexylpiperidine] were over 300 µM, 5 µM and over 300 µM.
For the compound `CCCCN1CCC(Cc2ccccc2)CC1` [(B), 4-benzyl-1-butylpiperidine], the IC50 is over 300 µM in experiment [1] (setting [4]), 25 µM in experiment [2] (setting [5]) and over 300 µM in experiment [3] (setting [6]).
For `O=C(c1cccc(F)c1)C1CCN(CCCCc2ccccc2)CC1` [(C), 4-(3′-fluorobenzoyl)-1-(4″-phenylbutyl)piperidine], the IC50 in experiment [1] (setting [4]) is over 300 µM; in experiment [2] (setting [5]) it was 10 µM; in experiment [3] (setting [6]) it was over 300 µM.
Turning to `NC(=O)CCCCN1CCC(Cc2ccccc2)CC1` [Ex. 2, 4-Benzylpiperidylpentamide], the IC50 in experiment [1] (setting [4]) is over 300 µM; in experiment [2] (setting [5]), 1.6 µM; in experiment [3] (setting [6]) it was over 300 µM.
Regarding `NNC(=O)CCCCN1CCC(Cc2ccccc2)CC1` [Ex. 3, 4-Benzylpiperidylpentahydrazide], the IC50 in experiment [1] (setting [4]) was over 300 µM; in experiment [2] (setting [5]) it was 4 µM; in experiment [3] (setting [6]) it was over 300 µM.
Take `C#CCCN1CCC(Cc2ccccc2)CC1` [Ex. 6, 4-benzyl-1-(3-Butynyl)piperidine]: the values for the IC50 in experiment [1] (setting [4]), in experiment [2] (setting [5]) and in experiment [3] (setting [6]) were over 300 µM, 2.3 µM and over 300 µM, respectively.
On to `C#CCCN1CCC(O)(c2ccc(Cl)cc2)CC1` [Ex. 7, 1-(3-Butynyl)-4-(p-chlorphenyl)-4-hydroxypiperidine], for which the IC50 in experiment [1] (setting [4]) is over 300 µM; in experiment [2] (setting [5]), 65 µM; in experiment [3] (setting [6]) it was over 300 µM.
Regarding `Fc1cccc(C[P+](c2ccccc2)(c2ccccc2)c2ccccc2)c1` [Ex. 8, m-Fluorobenzyltriphenylphosphonium bromide], the figures for the IC50 in experiment [1] (setting [4]), in experiment [2] (setting [5]) and in experiment [3] (setting [6]) were over 300 µM, 65 µM and over 300 µM, respectively.
As to `Fc1cccc(C=C2CCN(Cc3ccccc3)CC2)c1` [Ex. 9, 1-Benzyl-4-(m-fluorobenzylidene)piperidine], the IC50 was 240 µM in experiment [1] (setting [4]), 14 µM in experiment [2] (setting [5]) and over 300 µM in experiment [3] (setting [6]).
The like results for `O=C(CCCN1CCC(O)CC1)c1ccccc1` [Ex. 13, 4-(4-Hydroxypiperidinyl) butyrophenone] were, in that order, 80 µM, 53 µM and 140 µM.
The like results for `OC1(Cc2ccccc2)CCN(CCCc2ccccc2)CC1` [Ex. 16, 4-Benzyl-4-hydroxy-1-(3-phenylpropyl)piperidine] were, in that order, 20 µM, 17 µM and 80 µM.
In the case of `c1ccc(OCCN2CCc3ccccc3C2)cc1` [Ex. 18, N-(2-Phenoxyethyl)-1,2,3,4-tetrahydroisoquinoline], the values for the IC50 in experiment [1] (setting [4]), in experiment [2] (setting [5]) and in experiment [3] (setting [6]) were 140 µM, 35 µM and over 100 µM, respectively.
For the compound `c1ccc(OCCCN2CCc3ccccc3C2)cc1` [Ex. 19, N-(3-Phenoxypropyl)-1,2,3,4-tetrahydroisoquinoline], the IC50 in experiment [1] (setting [4]) amounted to 75 µM; in experiment [2] (setting [5]), 10 µM; in experiment [3] (setting [6]) it was 275 µM.
The like results for `O=C(c1ccccc1)C1CCN(CCOc2ccccc2)CC1` [Ex. 27, 4-Benzoyl-1-(2-phenoxyethyl)piperidine] were, in that order, over 300 µM, 50 µM and over 300 µM.
The like results for `O=C(Nc1ccc([N+](=O)[O-])cc1)N1CCC(Cc2ccccc2)CC1` [Ex. 30, 1-[2-aza-1-oxo-2-(4-nitrophenyl)ethyl]-4-benzylpiperidine] were, in that order, 95 µM, 8 µM and over 100 µM.
Taken in the same sequence, the figures for `COC(=O)CCCCN1CCCC(Cc2ccccc2)C1` (stereo not drawn) [Ex. 34, 5-(3-Benzylpiperidinyl)valeric acid methyl ester] were over 300 µM, 240 µM and over 300 µM.
On to `CCOC(=O)CCCN1CCCC(Cc2ccccc2)C1` (stereo not drawn) [Ex. 35, 4-(3-Benzylpiperidinyl)butyric acid ethyl ester], for which the values for the IC50 in experiment [1] (setting [4]), in experiment [2] (setting [5]) and in experiment [3] (setting [6]) were over 300 µM, 150 µM and over 300 µM, respectively.
`C=CCN1CCCCC1Cc1ccccc1` (stereo not drawn) [Ex. 38(A), 1-Allyl-2-benzylpiperidine, hydrobromide]: the IC50 in experiment [1] stood at 25 µM; in experiment [2], 72 µM; in experiment [3], 65 µM.
Turning to `C=CC[N+]1(CC=C)CCCCC1Cc1ccccc1` (stereo not drawn) [Ex. 38(B), 2-benzyl-l,1-diallylpiperidinium iodide], the IC50 stood at 28 µM in experiment [1] (setting [4]), 50 µM in experiment [2] (setting [5]) and 50 µM in experiment [3] (setting [6]).
For the compound `CCOC(=O)CCCN1CCC(Cc2ccccc2)CC1` [Ex. 41, 4-(4-Benzylpiperidinyl) butyric acid ethyl ester hydrobromide salt], the IC50 in experiment [1] (setting [4]), in experiment [2] (setting [5]) and in experiment [3] (setting [6]) was over 300 µM in each case.
As to `NCCCN1CCC(Cc2ccccc2)CC1` [Ex. 47, 4-Benzyl-1-(3-aminopropyl) piperidine], the IC50 in experiment [1] (setting [4]) was 270 µM; in experiment [2] (setting [5]), 40 µM; in experiment [3] (setting [6]), over 300 µM.
With `OCCCCN1CCC(Cc2ccccc2)CC1` [Ex. 86, 4-Benzyl-1-(4-hydroxybutyl)piperidine hydrobromide], the values for the IC50 in experiment [1] (setting [4]), in experiment [2] (setting [5]) and in experiment [3] (setting [6]) were over 300 µM, 12 µM and over 300 µM, respectively.
In the case of `OCCCN1CCC(O)(Cc2ccccc2)CC1` [Ex. 87, 4-Benzyl-4-hydroxy-1-(3-hydroxypropyl)piperidine], the IC50 in experiment [1] (setting [4]) is over 300 µM; in experiment [2] (setting [5]), 7 µM; in experiment [3] (setting [6]) it was over 300 µM.
As for `OCC1CC2CC(Cc3ccccc3)CCN2C1` (stereo not drawn) [Ex. 88, 7-Benzyl-1,2,3,5,6,7,8,9-octahydro-2-(hydroxymethyl)indolizine], the IC50 is over 300 µM in experiment [1] (setting [4]), 5 µM in experiment [2] (setting [5]) and over 300 µM in experiment [3] (setting [6]).
Regarding `OCCCN1CCC(Cc2ccc(F)cc2)CC1` [Ex. 90, 4-(4-Fluorobenzyl)-1-(3-hydroxypropyl) piperidine hydrobromide], the IC50 in experiment [1] (setting [4]) is over 300 µM; in experiment [2] (setting [5]), 1.3 µM; in experiment [3] (setting [6]), over 300 µM.
`C[C@@H](CO)CN1CCC(Cc2ccc(F)cc2)CC1` [Ex. 92, (R)-4-(4-Fluorobenzyl)-1-(3-hydroxy-2-methylpropyl) piperidine hydrochloride]: the IC50 is over 300 µM in experiment [1] (setting [4]), 8 µM in experiment [2] (setting [5]) and over 300 µM in experiment [3] (setting [6]).
On to `CC(O)CCN1CCC(Cc2ccc(N)cc2)CC1` (stereo not drawn) [Ex. 105, 4-(4-aminobenzyl)-1-(3-hydroxy-butyl) piperidine hydrochloride], for which the IC50 is 120 µM in experiment [1] (setting [4]), 17 µM in experiment [2] (setting [5]) and over 300 µM in experiment [3] (setting [6]).
